The record followed here is patent publication US20250340570A1, “COMPOSITIONS USEFUL FOR MODULATING SPLICING” (Skyhawk Therapeutics, Inc., priority 2022, published 2025).

By IC50 is commonly meant the concentration that inhibits the measured activity by half. Low readings indicate greater potency, high ones weaker potency.

Experiment [1] relates to ATXN3 transcripts containing exon 4. The experiment can be described thus: ATXN3 quantitative splicing assay (qPCR, E4E5 transcripts containing exon 4). As to conditions: Human neuroblastoma SK-N-MC cells, 24 h treatment, qPCR primers/probe E4E5. In kind it is cell-based. The gist of the method:
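SK-N-MC neuroblastoma cells treated 24 h with compounds from 30 μM to 0.6 nM (0.3% DMSO), then lysed for cDNA synthesis. ATXN3 transcripts containing exon 4 quantified by TaqMan qPCR with E4E5 primers/probe; E8E9 set measured total ATXN3.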
Background: Quantitative PCR measures a nucleic acid by following its amplification.

The test system of another experiment is total ATXN3 protein. The experiment can be described thus: ATXN3 total protein assay (Mesoscale Discovery). In kind it is cell-based. As to conditions: Human neuroblastoma SK-N-MC cells, 48 hours incubation, MSD assay. The gist of the method: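 SK-N-MC neuroblastoma cells treated 48 hours with compound, 30 µM to 0.6 nM. Lysates assayed by MSD sandwich immunoassay with mouse capture and rabbit detection anti-ATXN3 antibodies; quantified against recombinant ATXN3 standards.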

In the case of `Cc1c(C[C@H](C)N)sc2c(NCc3ccco3)snc12` [Compound 6, 7-[(S)-2-aminopropyl]-4-(furfurylamino)-8-methyl-3,6-dithia-2-azabicyclo[3.3.0]octa-1,4,7-triene], the IC50 (in experiment [1]; with total ATXN3 protein) was 0.501 to 5 µM in each case.
Turning to `N[C@@H](CF)Cc1sc2c(NCc3nccs3)snc2c1Br` [Compound 104, 7-[(R)-2-amino-3-fluoropropyl]-8-bromo-4-{[(1,3-thiazol-2-yl)methyl]amino}-3,6-dithia-2-azabicyclo[3.3.0]octa-1,4,7-triene], the half-inhibitory concentration (IC50) (in experiment [1]; in the experiment with total ATXN3 protein) was 0.501 to 5 µM each time.
Consider `Cc1c(C[C@@H](N)[C@@H](C)F)sc2c(NCc3cccs3)snc12` [Compound 73, 7-[(2R,3R)-2-amino-3-fluorobutyl]-8-methyl-4-thenylamino-3,6-dithia-2-azabicyclo[3.3.0]octa-1,4,7-triene], for which the IC50 in experiment [1] was in the range of 10 to 40 µM; with total ATXN3 protein, 5 to 10 µM.
Taken in the same sequence, the figures for `Cc1c(C[C@@H](N)CC(F)F)sc2c(NCc3cccs3)snc12` [Compound 68, 7-[(S)-2-amino-4,4-difluorobutyl]-8-methyl-4-thenylamino-3,6-dithia-2-azabicyclo[3.3.0]octa-1,4,7-triene] were 10 to 40 µM and 10 to 40 µM.
On the same counts, the results for `Cc1csc2c(NCc3ccco3)snc12` [Compound 4, (furfuryl)(8-methyl-3,6-dithia-2-azabicyclo[3.3.0]octa-1,4,7-trien-4-yl)amine] are 10 to 40 µM and 10 to 40 µM.
On the same counts, the results for `N[C@H](Cc1sc2c(NCc3cccs3)snc2c1Cl)C(CO)CO` [Compound 89, 2-{(R)-1-amino-2-(8-chloro-4-thenylamino-3,6-dithia-2-azabicyclo[3.3.0]octa-1,4,7-trien-7-yl)ethyl}-1,3-propanediol] are 5 to 10 µM and 0.501 to 5 µM.
For `Cc1c(C[C@@H](N)CC2CC2)sc2c(NCc3cccs3)snc12` [Compound 8, 7-[(S)-2-amino-3-cyclopropylpropyl]-8-methyl-4-thenylamino-3,6-dithia-2-azabicyclo[3.3.0]octa-1,4,7-triene], the IC50 (in experiment [1]; in the experiment with total ATXN3 protein) was 5 to 10 µM throughout.
